Results from patent US10308938B2, “Compositions and methods to activate or inhibit toll-like receptor signaling” (priority 2014, dated 2019).
Entries after “also recorded” stand apart in the source; their conditions may differ.

Columns and labels:
Assay type in all cases: cell-based, human
CD4^+ T cells [1] = test: Intracellular cytokine staining after PMA and ionomycin restimulation; conditions: increasing doses of IMQ; day 4, 4 hour PMA and ionomycin
Experimental: Cell activation and intracellular staining. T populations were stimulated with 1 μg/ml anti-CD3, 1 μg/ml anti-CD28 and 10 U/ml IL-2 in the presence or absence of TLR ligands. […] For both extracellular and intracellular stainings, LIVE/DEAD reagent (Molecular Probes) was used to exclude dead cells before surface staining. […] Samples were run on a BD Fortessa instrument and analyzed with FlowJo (TreeStar).

memory T cells = test: IMQ pretreatment, washout, rest and restimulation with anti-CD3 and anti-CD28; conditions: IMQ 2 hours, 12 hours rest, anti-CD3 and anti-CD28
Experimental: (§1) Enzyme-linked immunosorbent assay.
To determine if pretreatment of CD4^+ T cells with IMQ would be sufficient to diminish their subsequent cytokine secretion and proliferative response to a full stimulation, memory T cells were pre-treated with IMQ for 2 hours and rested for 12 hours after washout to remove traces of IMQ and then stimulated with anti-CD3 and anti-CD28 for 3 days.

CD4^+ T cells [2] = test: Expression of activation markers on stimulated CD4+ T cells; conditions: 48 hours after activation
Excerpt: (§2) Cell activation and intracellular staining.

CD4^+ T cells [3] = test: Cytokine gene expression in stimulated CD4+ T cells, TaqMan real-time PCR; conditions: 12 hours after activation
Excerpt: (§3) Quantification of mRNA expression levels by RT-PCR. RNA was isolated using QIAGEN RNeasy Micro Plus Kit (QIAGEN, Valencia, Calif.), following manufacturer's guidelines and converted to cDNA by reverse transcription (RT) with random hexamers and Multiscribe RT (TQMN, Reverse Transcription Reagents; Applied Biosystems, Foster City, Calif.). For mRNA gene expression assays, probes were purchased from Applied Biosystems (Table 2) and the reactions were set up following manufacturer's guidelines and run on a StepOne Real-Time PCR System (Applied Biosystems). Values are represented as the difference in Ct values normalized to β2-microglobulin for each sample as per the following formula: Relative RNA expression=(2^−dCt)×1000.

CD4^+ T cells [4] = test: shRNA-transduced CD4+ T cells stimulated in the presence or absence of IMQ
Excerpt: as §1, §3
Gene silencing by lentiviral transduction. Lentiviral particles encoding shRNAs were obtained from Sigma-Aldrich (NFAT1 clone TRCN0000016144, TLR7 clones 3 and 4 TRCN0000056973 and TRCN0000056974, respectively). 5×10^4 CD4^+ T cells per well were stimulated with plate-bound anti-CD3 (1 μg/ml) and soluble anti-CD28 (1 μg/ml) for 12 h before transduction. Cells were then transduced with viral particles containing a vector expressing the indicated specific shRNA (NFAT1 or TLR7) or a non-target shRNA as a control at a multiplicity of infection of 4. All constructions contained the coding sequence for GFP. After 5 days in culture, transduced cells were sorted based on GFP expression and the efficiency of gene silencing was determined by TaqMan real-time PCR and protein staining.

NFAT1 = NFAT1 dephosphorylation, Western blot; conditions: 0, 45 and 90 minutes; confirmed with phospho-specific antibody, 40 minutes
Experimental: Western blotting. Total protein extracts were isolated with M-PER protein extraction kit (Thermo Scientific) and quantified with a BCA kit (Thermo Scientific). 20 μg of protein extract were loaded per lane, separated on a 10% SDS-PAGE gel and transferred to a nitrocellulose membrane. anti-NFAT1 and anti-β-actin were obtained from Cell Signaling Technology. Anti-pNFAT1 (Ser213/217/229) antibody was obtained from Santa Cruz Biotechnology (Dallas, Tex.). Primary antibodies were detected by secondary anti-rabbit-HRP-conjugated (Cell Signaling Technology) and images were obtained in a CCD camera instrument. Bands were quantified with QuantityOne software.
An immediate consequence of increased concentration of intracellular calcium is the activation of the nuclear factor of activated T-cells (NFAT1), a transcription factor that is highly phosphorylated in resting cells and becomes dephosphorylated by the calcium/calmodulin-dependent phosphatase calcineurin when the concentration of intracellular calcium is increased. To examine whether IMQ stimulation induced the dephosphorylation of NFAT1, we stimulated CD4^+ T cells with IMQ and purified total protein extracts at 0, 45 and 90 minutes (FIG. 25A).

CD14^+ monocytes = test: Activation of CD14+ monocytes (surface staining, cytokine ELISA)
Excerpt: Cell isolation and FACS sorting of T cell populations. Peripheral blood mononuclear cells (PBMC) were isolated from healthy donors by Ficoll Hypaque gradient centrifugation. Total CD4^+ T cells were isolated by negative selection using CD4^+ T cell isolation kit (StemCell Technologies, Vancouver, BC) and stained for fluorescence-activated cell sorting (FACS) with the following antibodies: anti-CD45RO (clone UCHL1), CD45RA (clone H1100), CD25 (clone M-A251) (all from BD Biosciences) and CD127 (clone eBioRDR5) from eBioscience (San Diego, Calif.). The Treg (CD4^+CD25^hiCD127^low/neg) memory T cell (CD4^+CD45RA^−CD45RO^+CD25^low/neg+) and naïve T cell (CD4^+CD45RA^+CD45RO^−CD25^low/neg) populations were sorted on a FACS Aria (BD Biosciences). Unless specified, CD4^+ T cells used in the experiments were Treg-depleted CD4^+ T cells and they were sorted as CD4^+CD25^pos/lowCD127^+. The purity of the sorted CD4^+ T cell population was >98% as assessed by CD3 and CD4 staining after sort. CD14^+ cells were isolated by positive selection using EasySep™ Human CD14 Positive Selection Kit (StemCell Technologies).
as §2, §1

CD4^+ T cells [5] = test: Intracellular calcium measurement (INDO-1AM)
Experimental: Intracellular calcium measurements. Ex vivo isolated CD4^+ T cells were labeled with 5 μM INDO-1AM for one hour at 37° C. in PBS, 1 mM Ca^2+. Cells were washed to remove traces of INDO-1AM, resuspended in buffer at 10^6 cells/ml and incubated for 30 minutes at 37° C. before analysis. When necessary, IRS661 was added at the indicated concentration during the 30 minute incubation. For acquisition, the sample was acquired for approximately 3 minutes to obtain basal levels of calcium and subsequently IMQ or other reagents were added at the indicated concentrations. Samples were acquired for a minimum of 10 minutes on a BD Fortessa instrument and analysed with FlowJo software.

[6] = NFAT shRNA-transduced cells, 3 days
[7] = TLR7 shRNA-transduced cells, 3 days
[8] = non-target shRNA-transduced cells, 3 days, listed as IMQ

CC(C)Cn1cnc2c(N)nc3ccccc3c21 [Imiquimod]
frequency of cytokine-producing cells (CD4^+ T cells [1]): diminished in a dose-dependent manner
IFNγ production after restimulation (memory T cells): significantly decreased
IL-2 production after restimulation (memory T cells): significantly decreased
expression of activation marker CD25 (CD4^+ T cells [2]): inhibited
expression of activation marker CD69 (CD4^+ T cells [2]; listed as IMQ): inhibited; also recorded: decrease
expression of activation marker CD137 (CD4^+ T cells [2]; listed as IMQ): inhibited; also recorded: decrease
induction of IFNγ gene expression (CD4^+ T cells [3]): significant decrease
induction of IL-2 gene expression (CD4^+ T cells [3]): significant decrease
induction of IL-4 gene expression (CD4^+ T cells [3]): significant decrease
NFAT1 gene expression (CD4^+ T cells [4]; 24 hours after stimulation): did not have an effect
IFNγ production (CD4^+ T cells [4]; [6]): not affected
IL-2 production (CD4^+ T cells [4]; [6]): not affected
IMQ-induced decrease of IFNγ secretion (CD4^+ T cells [4]; [7]): abolished
IMQ-induced decrease of IL-2 secretion (CD4^+ T cells [4]; [7]): abolished
IFNγ secretion (CD4^+ T cells [4]; [8]): decrease; also recorded: significantly reduced
IL-2 secretion (CD4^+ T cells [4]; [8]): decrease; also recorded: significantly reduced
phosphorylation state of NFAT1 (NFAT1): dephosphorylated
CD25 protein expression (CD14^+ monocytes; 5 μg/ml IMQ, 24 hours): upregulation
CD80 protein expression (CD14^+ monocytes; 5 μg/ml IMQ, 24 hours): upregulation
CD86 protein expression (CD14^+ monocytes; 5 μg/ml IMQ, 24 hours): downregulation
HLA-DR protein expression (CD14^+ monocytes; 5 μg/ml IMQ, 24 hours): upregulation
IL-6 secretion (CD14^+ monocytes; ELISA): secreted significant levels
IL-10 secretion (CD14^+ monocytes; ELISA): decreased
IL-113 secretion (CD14^+ monocytes; ELISA): secreted significant levels
TNFα secretion (CD14^+ monocytes; ELISA): secreted significant levels
duration of the increase in intracellular calcium concentration (CD4^+ T cells [5]): at least 20 minutes
intracellular calcium concentration (CD4^+ T cells [5]; INDO-1AM ratio over time): significant and sustained (maintained for at least 20 minutes, FIGS. 23A and 23B) increase
